The results in this text go back to patent US20210244028A1, “TREATMENT FOR REMOVING ECTOPARASITES FROM FISH” (priority 2018, published 2021).

“And” between values parts separate entries of the source, which are not always exact repeats. Identical values can stand only once.

For experiment [1], the system named is azamethiphos- and deltamethrin-resistant sea lice. As to the kind of experiment: In vitro bath exposure of isolated sea lice (Example 6). The following applies: registered approx. 20 h after end of exposure. How it is done: A trial was performed to ensure there was no cross-resistance between azamethiphos- and deltamethrin-resistant sea lice and neonicotinoids. Both pre-adult and adult stages (mobile stages) of both sexes were used, and they were equally distributed among groups. The sea lice were exposed to imidacloprid for 60 minutes, azamethiphos for 60 minutes and deltamethrin for 30 minutes in one litre baths at a range of concentrations (Tables 6, 7 and 8). The sea lice were transferred to clean aerated seawater after treatment. The temperature of the seawater during the experiment was 12° C., but during exposure the temperature raised to approx. 14° C. in regimes exposed for 60 min. (imidacloprid and azamethiphos) and to 13° C. for the regime exposed in 30 minutes (deltamethrin).
The numbers of live and immobilised (including killed) lice in each regime were registered approximately 20 h after end of exposure. Each louse was individually investigated.

For experiment [2], the system named is Salmon lice. As to the kind of experiment: Bath treatment of lice-infected Atlantic salmon, percent lice removed (Example 7). The following applies: 30 minutes, duplicate, 3 fish per test. Format: in vivo. How it is done:
To determine the concentration- and time-dependence of imidacloprid treatment in vivo, Atlantic salmon (average of 320.9 g) were challenged with imidacloprid in seawater ([…] salinity) at 12° C. The water level in the tank was lowered and aeration was employed during administration of the active. The salmon louse copepodid culture was counted and adjusted to obtain a target level of around 40 copepodids per fish in the challenge tank at each challenge time point.
Salmon lice on the fish were counted using standard methods. Only lice on the fish's outer surface, not including gills and oral/buccal cavities, were investigated.
Numbers of dissociated lice in tank water or attached to the tank walls were recorded. Lice in the tank water were collected and assessed for ability to attach by suction to a smooth plastic surface immediately after treatment and again after 30-60 minutes (to assess possible revival). […]
To terminate the treatment, the inner compartment with treated fish was lifted to the surface and drained, then fish were transferred directly and without water to a second basin with a lethal overdose of anaesthetic and left until dead. All lice remaining on these fish and lice that fell off in the anaesthetic bath were recorded. […]

As to `COP(=O)(OC)SCn1c(=O)oc2cc(Cl)cnc21` [azamethiphos], the “% effect” value is 0% in experiment [1] (5 ppm, 60 minutes exposure); 10% in experiment [1] (10 ppm, 60 minutes exposure); 0% in experiment [1] (15 ppm, 60 minutes exposure); 10% and 20% in experiment [1] (20 ppm, 60 minutes exposure). The Immobilised in experiment [1] (5 ppm, 60 minutes exposure) is 0; in experiment [1] (10 ppm, 60 minutes exposure), 1; in experiment [1] (15 ppm, 60 minutes exposure), 0; in experiment [1] (20 ppm, 60 minutes exposure), 1 and 2. Moreover, the Live in experiment [1] (5 ppm, 60 minutes exposure) was 10; in experiment [1] (10 ppm, 60 minutes exposure), 9; in experiment [1] (15 ppm, 60 minutes exposure) it was 10; in experiment [1] (20 ppm, 60 minutes exposure) it was 9 and 8; in experiment [1] (30 ppm, 60 minutes exposure) it was 9 and 6. Also, the “% Removal” value in experiment [2] (0.1 mg/l) was 3.0^33% and 3.8^52%.

Take `CC1(C)[C@H](C(=O)O[C@H](C#N)c2cccc(Oc3ccccc3)c2)[C@@H]1C=C(Br)Br` [deltamethrin]: the “% effect” value was 0% in experiment [1] (5 ppm, 30 minutes exposure); 20% and 10% in experiment [1] (15 ppm, 30 minutes exposure); 20% and 10% in experiment [1] (20 ppm, 30 minutes exposure). In addition, the Immobilised was 0 in experiment [1] (5 ppm, 30 minutes exposure); 2 and 1 in experiment [1] (15 ppm, 30 minutes exposure); 2 and 1 in experiment [1] (20 ppm, 30 minutes exposure); 1 and 2 in experiment [1] (30 ppm, 30 minutes exposure). Besides, the Live is 10 in experiment [1] (5 ppm, 30 minutes exposure); 9 and 10 in experiment [1] (10 ppm, 30 minutes exposure); 8 and 9 in experiment [1] (15 ppm, 30 minutes exposure); 8 and 9 in experiment [1] (20 ppm, 30 minutes exposure); 10 and 8 in experiment [1] (30 ppm, 30 minutes exposure). In addition, in experiment [2] (0.2 μl/l), the “% Removal” value is 0^37%.
